Paper PMC3932137, “Simple, sensitive and rapid determination of linifanib (ABT-869), a novel tyrosine kinase inhibitor in rat plasma by UHPLC-MS/MS” (Chemistry Central Journal, 2014)
Blank lines part the entries; values can stand above or below the molecule they belong to.

Legend:
[1] = stability of linifanib in rat plasma during sample storage and processing; format: in vitro ADME; details: for Accuracy (%) / Mean ± SD concentration found: n = 6
Experimental: (§1) The stability of linifanib in rat plasma during the sample storage and processing conditions was assessed by analyzing six replicates of LQC and HQC. Short-term stability was assessed after keeping the plasma samples at ambient temperature for ∼ 6 h, the freeze–thaw stability was determined after three cycles of freeze-thaw. Post-preparative stability was determined by storing the reconstituted QC samples for ∼ 48 h under autosampler conditions (maintained at 10°C) before being analyzed. Long-term stability was assessed after storage of the test samples at around −80°C for 30 days. The working solutions and stock solutions of linifanib and the IS were also evaluated for stability at room temperature for 12 h and at refrigerator temperature (below 10°C) for 15 days. The samples were considered stable in plasma at each concentration if the deviation from the mean calculated concentration of quality control samples were within ±15%.

[2] = design: method as in PMID 22382879, PMID 19720910; details: phase I study, cited from earlier work
[3] = pilot pharmacokinetic study of linifanib in rats (oral); format: in vivo; details: male, Wistar albino, plasma, rat, 5 mg/kg oral, single dose
Experimental: After an overnight fasting, all rats received linifanib (5 mg/kg, oral, dissolved in HPMC). Blood samples (approximately 0.5 mL) were collected from the retro-orbital plexus into heparinized microfuge tubes at different time interval after linifanib administration and plasma samples were harvested by centrifuging the blood at 4500 rpm for 8 min and stored frozen at −80 ± 10°C until analysis. The pharmacokinetic parameters: Cmax, Tmax, AUC, t½ and Kel were calculated using WinNonlin software.

[4] = stability of stock solutions and working solutions; format: physicochemical; details: for time stock solutions and working standard stable at refrigerator temperature: refrigerator temperature (below 10°C)
Experimental: as §1

[5] = rat plasma, 30 days at −80°C, nominal 1.28 ng/mL
[6] = rat plasma, 30 days at −80°C, nominal 425 ng/mL
[7] = rat plasma, bench top (6 hrs), nominal 1.28 ng/mL
[8] = rat plasma, bench top (6 hrs), nominal 425 ng/mL
[9] = rat plasma, freeze thaw (3 cycle), nominal 1.28 ng/mL
[10] = rat plasma, freeze thaw (3 cycle), nominal 425 ng/mL
[11] = reconstituted QC samples in injector (48 hrs, 10°C), nominal 1.28 ng/mL
[12] = reconstituted QC samples in injector (48 hrs, 10°C), nominal 425 ng/mL

- time stable in autosampler ([1]; autosampler maintained at 10°C): 48 h
- Accuracy (%) [1, 5]: 98.3%
- Mean ± SD concentration found [1, 5]: 1.26 ± 0.10 ng/mL
- Accuracy (%) [1, 6]: 90.5%
- Mean ± SD concentration found [1, 6]: 384 ± 20.2 ng/mL
- Accuracy (%) [1, 7]: 105.0%
- Mean ± SD concentration found [1, 7]: 1.35 ± 0.06 ng/mL
- Accuracy (%) [1, 8]: 92.7%
- Mean ± SD concentration found [1, 8]: 393 ± 34.8 ng/mL
- Accuracy (%) [1, 9]: 101.1%
- Mean ± SD concentration found [1, 9]: 1.30 ± 0.10 ng/mL
- Accuracy (%) [1, 10]: 90.7%
- Mean ± SD concentration found [1, 10]: 385 ± 14.3 ng/mL
- Accuracy (%) [1, 11]: 110.6%
- Mean ± SD concentration found [1, 11]: 1.42 ± 0.09 ng/mL
- Accuracy (%) [1, 12]: 107.2%
- Mean ± SD concentration found [1, 12]: 455 ± 19.8 ng/mL
- time stable in rat plasma at around −80°C ([1]; spiked into rat plasma, around −80°C): up to 30 days
- time stable in rat plasma at room temperature ([1]; spiked into rat plasma, room temperature): at least 6.0 h
- freeze-thaw stability in rat plasma ([1]; spiked into rat plasma, three freeze-thaw cycle): stable
- k el [3]: 2.78e-05 s⁻¹
- half-life ([3]; read-out: average t½ (converted)): 6.67 h
- AUC(0-t) ([3]; read-out: mean AUC0-8h): 232 ng·h/mL
- Cmax ([3]; read-out: mean peak plasma concentration (Cmax)): 55.1 ng/mL
- Tmax ([3]; read-out: time to peak plasma concentration (Tmax)): 2.5 h
- time stock solutions and working standard stable at refrigerator temperature [4]: 15 days
- time stock solutions and working standard stable at room temperature [4]: 12 h
SMILES: Cc1ccc(F)c(NC(=O)Nc2ccc(-c3cccc4[nH]nc(N)c34)cc2)c1 [linifanib, N-(4-(3-amino-1H-indazol-4-yl)phenyl)-N'-(2-fluoro-5-methylphenyl)urea]
- time to peak plasma concentration ([2]; across all dose levels): approx. 2 h
- dose recovered as unchanged in urine [2]: 15%
- oral clearance [2]: 2.7 L/h
- pharmacokinetics (dose and time dependence) [2]: dose proportional and time invariant

- time stock solutions and working standard stable at refrigerator temperature [4]: 15 days
- time stock solutions and working standard stable at room temperature [4]: 12 h
SMILES: CCN(CC)CCNC(=O)c1c(C)[nH]c(/C=C2\C(=O)Nc3ccc(F)cc32)c1C [IS, sunitinib]
